# Test results from patent US9937151B2, “Carbapenem antibacterials with gram-negative activity” (priority 2010, dated 2018).
# Test system: G(−) bacterial strains
# Assay: Dilution antimicrobial susceptibility tests (MIC, NCCLS agar dilution / broth dilution)
# Format: cell-based, Gram-negative organisms
# Details: unit assumed
# Summary of the method: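 Agar dilution on Mueller-Hinton agar at 10^4 CFU/spot and broth dilution at 5×10^5 CFU/well, per NCCLS M7-A5. Streptococci tested on Mueller-Hinton agar with 5% sheep blood. MIC taken as minimum inhibitory concentration; ATCC control strains run alongside.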
# [1] = strain #1 Acinetobacter calcoaceticus
# [2] = strain #2 Acinetobacter baumannii, Cf-R, Ci-R
# [3] = strain #3 Acinetobacter baumannii, Cf-R, Ci-R, Mp-I
# [4] = strain #4 Acinetobacter baumannii, Cf-R, Imp-I, CBPase
# [5] = strain #7 Enterobacter aerogenes
# [6] = strain #8 Enterobacter cloacae, Cf-R, B+
# [7] = strain #9 Enterobacter cloacae, Cf-R
# [8] = strain #10 Escherichia coli, Ci-R
# [9] = strain #11 Escherichia coli, Ci-R, AmpC
# [10] = strain #15 Klebsiella pneumoniae
# [11] = strain #16 Moraxella catarrhalis
# [12] = strain #21 Providencia rettgeri
# [13] = strain #22 Salmonella typhimurium
# [14] = strain #25 Shigella dysenteriae
# [15] = strain #28 Stenotrophomonas maltophilia
# [16] = strain #29 Pseudomonas aeruginosa
# [17] = strain #30 Pseudomonas aeruginosa
# [18] = strain #31 Pseudomonas aeruginosa, Ofx-R
# [19] = strain #32 Pseudomonas aeruginosa, Cf-R
# [20] = strain #33 Pseudomonas aeruginosa, Ci-R
# [21] = strain #34 Pseudomonas aeruginosa, Gen-R
# [22] = strain #35 Pseudomonas aeruginosa, Ip-R
# [23] = strain #36 Pseudomonas aeruginosa, Cf-R, Ci-R, Mp-R
smiles,measurement,setting,value
C[C@@H](O)C1C(=O)N2C(C(=O)O)=C(CN3CC[C@H](C(=O)N(C)C)C3)[C@H](C)C12 (stereo partly shown) [Compound 120],MIC,[1],4 µg/mL
same,MIC,[2],8 µg/mL
same,MIC,[3],16 µg/mL
same,MIC,[4],4 µg/mL
same,MIC,strain #5 Citrobacter diversus,0.5 µg/mL
same,MIC,strain #6 Citrobacter freundii,0.5 µg/mL
same,MIC,[5],2 µg/mL
same,MIC,[6],0.5 µg/mL
same,MIC,[7],1 µg/mL
same,MIC,[8],0.5 µg/mL
same,MIC,[9],0.5 µg/mL
same,MIC,strain #12 Escherichia coli,0.5 µg/mL
same,MIC,strain #13 Escherichia coli,0.5 µg/mL
same,MIC,strain #14 Klebsiella oxytoca,1 µg/mL
same,MIC,[10],1 µg/mL
same,MIC,[11],0.016 µg/mL
same,MIC,strain #17 Morganella Morganii,8 µg/mL
same,MIC,strain #18 Morganella Morganii,4 µg/mL
same,MIC,strain #19 Proteus vulgaris,4 µg/mL
same,MIC,strain #20 Proteus mirabilis,0.5 µg/mL
same,MIC,[12],2 µg/mL
same,MIC,[13],0.5 µg/mL
same,MIC,strain #23 Serratia marcescens,1 µg/mL
same,MIC,strain #24 Serratia marcescens,2 µg/mL
same,MIC,[14],0.5 µg/mL
same,MIC,strain #26 Shigella sonnei,0.5 µg/mL
same,MIC,strain #27 Shigella flexneri,0.5 µg/mL
same,MIC,[15],1 µg/mL
same,MIC,[16],16 µg/mL
same,MIC,[17],16 µg/mL
same,MIC,[18],4 µg/mL
same,MIC,[19],16 µg/mL
same,MIC,[20],16 µg/mL
same,MIC,[21],16 µg/mL
same,MIC,[22],> 32 µg/mL
same,MIC,[23],> 32 µg/mL
CNC(=O)[C@H]1CCN(CC2=C(C(=O)O)N3C(=O)C([C@@H](C)O)C3[C@H]2C)C1 (stereo partly shown) [Compound 127],MIC,[1],1 µg/mL
same,MIC,[2],1 µg/mL
same,MIC,[3],4 µg/mL
same,MIC,[4],2 µg/mL
same,MIC,strain #5 Citrobacter diversus,0.5 µg/mL
same,MIC,strain #6 Citrobacter freundii,0.5 µg/mL
same,MIC,[5],2 µg/mL
same,MIC,[6],0.5 µg/mL
same,MIC,[7],1 µg/mL
same,MIC,[8],0.5 µg/mL
same,MIC,[9],0.5 µg/mL
same,MIC,strain #12 Escherichia coli,0.5 µg/mL
same,MIC,strain #13 Escherichia coli,0.5 µg/mL
same,MIC,strain #14 Klebsiella oxytoca,1 µg/mL
same,MIC,[10],1 µg/mL
same,MIC,[11],≤ 0.008 µg/mL
same,MIC,strain #17 Morganella Morganii,4 µg/mL
same,MIC,strain #18 Morganella Morganii,4 µg/mL
same,MIC,strain #19 Proteus vulgaris,2 µg/mL
same,MIC,strain #20 Proteus mirabilis,0.5 µg/mL
same,MIC,[12],2 µg/mL
same,MIC,[13],0.5 µg/mL
same,MIC,strain #23 Serratia marcescens,1 µg/mL
same,MIC,strain #24 Serratia marcescens,2 µg/mL
same,MIC,[14],1 µg/mL
same,MIC,strain #26 Shigella sonnei,0.5 µg/mL
same,MIC,strain #27 Shigella flexneri,0.5 µg/mL
same,MIC,[15],0.5 µg/mL
same,MIC,[16],8 µg/mL
same,MIC,[17],8 µg/mL
same,MIC,[18],2 µg/mL
same,MIC,[19],8 µg/mL
same,MIC,[20],8 µg/mL
same,MIC,[21],8 µg/mL
same,MIC,[22],16 µg/mL
same,MIC,[23],> 32 µg/mL
C[C@@H](O)C1C(=O)N2C(C(=O)O)=C(CN3CC[C@H](C(=O)NS(C)(=O)=O)C3)[C@H](C)C12 (stereo partly shown) [Compound 132],MIC,[1],4 µg/mL
same,MIC,[2],16 µg/mL
same,MIC,[3],16 µg/mL
same,MIC,[4],32 µg/mL
same,MIC,strain #5 Citrobacter diversus,0.25 µg/mL
same,MIC,strain #6 Citrobacter freundii,0.25 µg/mL
same,MIC,[5],1 µg/mL
same,MIC,[6],0.25 µg/mL
same,MIC,[7],0.5 µg/mL
same,MIC,[8],0.25 µg/mL
same,MIC,[9],0.25 µg/mL
same,MIC,strain #12 Escherichia coli,0.25 µg/mL
same,MIC,strain #13 Escherichia coli,0.25 µg/mL
same,MIC,strain #14 Klebsiella oxytoca,0.5 µg/mL
same,MIC,[10],0.5 µg/mL
same,MIC,[11],0.016 µg/mL
same,MIC,strain #17 Morganella Morganii,4 µg/mL
same,MIC,strain #18 Morganella Morganii,4 µg/mL
same,MIC,strain #19 Proteus vulgaris,1 µg/mL
same,MIC,strain #20 Proteus mirabilis,0.25 µg/mL
same,MIC,[12],1 µg/mL
same,MIC,[13],0.25 µg/mL
same,MIC,strain #23 Serratia marcescens,0.5 µg/mL
same,MIC,strain #24 Serratia marcescens,1 µg/mL
same,MIC,[14],0.25 µg/mL
same,MIC,strain #26 Shigella sonnei,0.25 µg/mL
same,MIC,strain #27 Shigella flexneri,0.13 µg/mL
same,MIC,[15],2 µg/mL
